According to patent US11957680B2, “Pyruvate kinase activators for use in treating blood disorders” (Agios Pharmaceuticals, Inc., priority 2017, dated 2024):

Experiments:
wild type PKR [1] = target: T1, wild type PKR (Homo sapiens, UniProt P30613); assay: PKR (wild type) enzyme AC50 assay, LDH/NADH-coupled, absorbance at 340 nm; type: biochemical; settings: for AC50: Table 2, enzyme assay, read-out: PKR WT AC50; for EC50: read-out: PKR WT
Summary of the method: (§1)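 Human PKR, wild type or K410E/R510Q mutant (40-400 ng/well), preincubated 60 min at room temperature with compound (11-point 3-fold series from 100 μM, 1% DMSO) in Tris pH 7.5/KCl/MgCl2 buffer with PEP 0.1-0.5 mM, 180 μM NADH, LDH. ADP (0.2-1.65 mM) started the reaction; LDH-coupled NADH consumption followed at 340 nm.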

PKR K410E = PKR K410E (Homo sapiens, UniProt P30613, K410E); assay: PKR mutant assay (K410E), AC50, LDH/NADH-coupled, absorbance at 340 nm; type: biochemical; settings: for AC50: Table 2, enzyme assay; for EC50: Table 4, AC50, enzyme assay
Summary of the method: as §1

PKR R510Q = PKR R510Q (Homo sapiens, UniProt P30613, R510Q); assay: PKR mutant assay (R510Q), AC50, LDH/NADH-coupled, absorbance at 340 nm; type: biochemical; settings: for AC50 / PK R510Q AC50: Table 2, enzyme assay; for AC50: read-out: PK R510Q AC50; for EC50: read-out: PK R510Q
Summary of the method: as §1

wild type PKR [2] = target: T1, wild type PKR; assay: Cell based ATP assay in purified red blood cells (Cell-Titer-Glo); design: endogenous in cells; host or cells: purified red blood cells from healthy volunteers; settings: overnight at 37° C., ATP levels; for AC50 / Cell based ATP assay AC50: Table 2, RBCs; for EC50 / Cell based ATP assay: Table 4, AC50, RBCs
Summary of the method: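 RBCs from healthy human donors' K2EDTA blood were leukocyte-depleted by filtration and resuspended in AGAM (PBS, 1% glucose, adenine, mannitol). Cells at 1×10^7 cells/mL were incubated overnight at 37 °C with serially diluted compound at 0.1% DMSO, and ATP was read by Cell-Titer-Glo luminescence.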

Sequence of PKR K410E (P30613 whole entry K410E): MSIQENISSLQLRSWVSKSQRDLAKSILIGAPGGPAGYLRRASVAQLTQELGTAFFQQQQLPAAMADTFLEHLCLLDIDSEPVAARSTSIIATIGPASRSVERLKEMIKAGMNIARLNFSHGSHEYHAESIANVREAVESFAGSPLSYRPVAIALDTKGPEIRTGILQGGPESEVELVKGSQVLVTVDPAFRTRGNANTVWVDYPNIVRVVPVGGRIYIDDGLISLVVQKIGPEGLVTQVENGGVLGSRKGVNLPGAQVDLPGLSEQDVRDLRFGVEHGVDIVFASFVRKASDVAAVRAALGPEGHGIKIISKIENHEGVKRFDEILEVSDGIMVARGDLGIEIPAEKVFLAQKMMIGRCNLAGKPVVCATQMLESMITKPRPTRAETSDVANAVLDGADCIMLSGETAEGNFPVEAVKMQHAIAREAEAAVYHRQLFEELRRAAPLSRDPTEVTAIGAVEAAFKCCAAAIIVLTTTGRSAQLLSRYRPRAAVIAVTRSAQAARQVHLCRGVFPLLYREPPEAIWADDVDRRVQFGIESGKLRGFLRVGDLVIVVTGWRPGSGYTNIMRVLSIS
Sequence of PKR R510Q (P30613 whole entry R510Q): as the sequence (P30613 whole entry K410E) above, with E410K, R510Q counted along it
T1 sequence (P30613 whole entry): as the sequence (P30613 whole entry K410E) above, with E410K counted along it

AC50 (wild type PKR [1]) [nM]	AC50 (PKR K410E) [nM]	AC50 (PKR R510Q) [nM]	AC50 (wild type PKR [2]) [nM]	EC50 (wild type PKR [1]; Table 4, AC50, enzyme assay) [nM]	EC50 (PKR K410E) [nM]	EC50 (PKR R510Q; Table 4, AC50, enzyme assay) [nM]	EC50 (wild type PKR [2]) [nM]	Compound	further results
> 800	> 800	301 to 800	≤ 1000	–	–	–	–	Cn1c2nc(C(O)c3ccccn3)sc2c2cnn(Cc3cccc4[nH]ncc34)c(=O)c21 (stereo not drawn) [Compound 130]	–
< 300	< 300	< 300	≤ 1000	–	–	–	–	COc1cccc(Cc2nc3c(s2)c2cnn(Cc4cccc5[nH]ncc45)c(=O)c2n3C)n1 [Compound 169]	–
–	–	–	–	< 300	< 300	< 300	≤ 1000	Cn1c2nc(Cc3cncs3)sc2c2cnn(Cc3cccc4[nH]ncc34)c(=O)c21 [Compound 211]	–
301 to 800	< 300	< 300	> 1000	–	–	–	–	COC(=O)Cc1nc2c(s1)c1cnn(Cc3cccc4[nH]ncc34)c(=O)c1n2C [Compound 131]	–
< 300	< 300	< 300	≤ 1000	–	–	–	–	COc1cccc(Cn2ncc3c4sc(Cc5ccc(F)cc5)nc4n(C)c3c2=O)c1 [Compound 59]	–
–	–	–	–	< 300	< 300	< 300	≤ 1000	Cn1c2nc(Cc3n[nH]cc3F)sc2c2cnn(Cc3cccc4[nH]ncc34)c(=O)c21 [Compound 236]	–
< 300	< 300	< 300	≤ 1000	–	–	–	–	Cn1c2nc(Cc3ccccc3)sc2c2cnn(Cc3cccc4[nH]ncc34)c(=O)c21 [Compound 91]	–
> 800	> 800	–	–	–	–	–	–	CSc1nc2c(s1)c1cnn(Cc3ccnc(=O)[nH]3)c(=O)c1n2C [Compound 96]	PK R510Q AC50 (PKR R510Q): No Fit; Cell based ATP assay AC50 (wild type PKR [2]): No Fit
301 to 800	301 to 800	301 to 800	≤ 1000	–	–	–	–	Cn1c2nc(Cc3cc(C(F)(F)F)[nH]n3)sc2c2cnn(Cc3cccc4[nH]ncc34)c(=O)c21 [Compound 160]	–
–	–	–	–	301 to 800	< 300	< 300	> 1000	Cn1c2nc(Cc3cc[nH]n3)sc2c2cnn(Cc3ccc4c(n3)NC(=O)C4)c(=O)c21 [Compound 387]	–
< 300	< 300	< 300	≤ 1000	–	–	–	–	COc1cccc(Cn2ncc3c4sc(Cc5ccc(C)cc5)nc4n(C)c3c2=O)c1 [Compound 32]	–
< 300	< 300	< 300	> 1000	–	–	–	–	Cn1c2nc([S+](C)[O-])sc2c2cnn(Cc3ccc4c(c3)OCCO4)c(=O)c21 (stereo not drawn) [Compound 90]	–
–	–	–	–	> 800	> 800	> 800	–	C=CCn1ncc2c3sc(Cc4ccccn4)nc3n(C)c2c1=O [Compound 398]	Cell based ATP assay (wild type PKR [2]): No Fit
> 800	301 to 800	> 800	≤ 1000	–	–	–	–	COC(=O)C(c1cc[nH]n1)c1nc2c(s1)c1cnn(Cc3cccc4[nH]ncc34)c(=O)c1n2C (stereo not drawn) [Compound 171]	–
> 800	< 300	301 to 800	> 1000	–	–	–	–	COC(=O)C(c1ccccc1)c1nc2c(s1)c1cnn(Cc3cccc4[nH]ncc34)c(=O)c1n2C (stereo not drawn) [Compound 134]	–
–	–	–	–	< 300	< 300	< 300	≤ 1000	CC(=O)c1cccc(Cn2ncc3c4sc(Cc5cc[nH]n5)nc4n(C)c3c2=O)c1 [Compound 190]	–
> 800	301 to 800	301 to 800	> 1000	–	–	–	–	Cc1nc2c(s1)c1cnn(Cc3cccc4cn[nH]c34)c(=O)c1n2C [Compound 65]	–

AC50 (wild type PKR [1]) [nM]	AC50 (PKR K410E) [nM]	AC50 (PKR R510Q) [nM]	AC50 (wild type PKR [2]) [nM]	EC50 (wild type PKR [1]; Table 4, AC50, enzyme assay) [nM]	EC50 (PKR K410E) [nM]	EC50 (PKR R510Q; Table 4, AC50, enzyme assay) [nM]	EC50 (wild type PKR [2]) [nM]	Compound	further results
< 300	< 300	< 300	≤ 1000	–	–	–	–	Cn1c2nc(C(N)=O)sc2c2cnn(Cc3cccc(N)n3)c(=O)c21 [Compound 158]	–
> 800	> 800	–	> 1000	–	–	–	–	Cn1c2nc([S+](C)[O-])sc2c2cnn(Cc3cnc(N)nc3)c(=O)c21 (stereo not drawn) [Compound 94]	PK R510Q AC50 (PKR R510Q): No Fit
–	–	–	–	< 300	< 300	< 300	≤ 1000	Cn1c2nc(Cc3cc[nH]n3)sc2c2cnn(Cc3nccc4[nH]ncc34)c(=O)c21 [Compound 199]	–
> 800	> 800	> 800	–	–	–	–	–	COc1cccc(Cn2ncc3c4sc(CC5CCCCC5)nc4n(C)c3c2=O)c1 [Compound 50]	Cell based ATP assay AC50 (wild type PKR [2]): No Fit
< 300	< 300	< 300	≤ 1000	–	–	–	–	Cn1c2nc(C(N)c3ccccc3)sc2c2cnn(Cc3cccc4[nH]ncc34)c(=O)c21 (stereo not drawn) [Compound 136]	–
> 800	> 800	> 800	> 1000	–	–	–	–	CSc1nc2c(s1)c1cnn(Cc3csc(-n4c(C)ccc4C)n3)c(=O)c1n2C [Compound 129]	–
–	–	–	–	< 300	< 300	< 300	≤ 1000	Cn1c2nc(Cc3ncsc3Br)sc2c2cnn(Cc3cccc4[nH]ncc34)c(=O)c21 [Compound 220]	–
> 800	> 800	> 800	> 1000	–	–	–	–	Cc1nc2c(s1)c1cnn(Cc3cccc(F)n3)c(=O)c1n2C [Compound 28]	–
–	–	–	–	< 300	< 300	> 800	≤ 1000	Cn1c2nc(Cc3cc[nH]c(=O)c3)sc2c2cnn(Cc3cccc4[nH]ncc34)c(=O)c21 [Compound 200]	–
–	–	–	–	> 800	> 800	> 800	–	CCn1c2nc(Cc3cc[nH]n3)sc2c2cnn(Cc3ccccc3)c(=O)c21 [Compound 402]	Cell based ATP assay (wild type PKR [2]): No Fit
–	–	–	–	< 300	< 300	< 300	≤ 1000	Cn1ccc(CCn2ncc3c4sc(Cc5cc[nH]n5)nc4n(C)c3c2=O)n1 [Compound 392]	–
< 300	< 300	< 300	≤ 1000	–	–	–	–	CNc1cccc(Cn2ncc3c4sc(C)nc4n(C)c3c2=O)c1 [Compound 70]	–
–	–	–	–	< 300	< 300	< 300	≤ 1000	Cn1c2nc(Cc3ncsc3C(N)=O)sc2c2cnn(Cc3cccc4[nH]ncc34)c(=O)c21 [Compound 196]	–
> 800	> 800	> 800	≤ 1000	–	–	–	–	Cn1c2nc([S+](C)[O-])sc2c2cnn(Cc3ccnc(N)c3)c(=O)c21 (stereo not drawn) [Compound 78]	–
< 300	301 to 800	301 to 800	≤ 1000	–	–	–	–	Cn1c2nc(Cc3cccc(C#N)c3)sc2c2cnn(Cc3cccc4[nH]ncc34)c(=O)c21 [Compound 99]	–
–	–	–	–	< 300	< 300	301 to 800	≤ 1000	Cn1c2nc(Cn3cncn3)sc2c2cnn(Cc3cccc4[nH]ncc34)c(=O)c21 [Compound 293]	–
–	–	–	–	–	> 800	–	> 1000	CS(=O)(=O)c1nc2c(s1)c1cnn(Cc3ccccc3)c(=O)c1n2-c1nccs1 [Compound 410]	PKR WT (wild type PKR [1]; Table 4, AC50, enzyme assay): No Fit; PK R510Q (PKR R510Q; Table 4, AC50, enzyme assay): No Fit

Compound	AC50 (wild type PKR [1]) [nM]	AC50 (PKR K410E) [nM]	AC50 (PKR R510Q) [nM]	AC50 (wild type PKR [2]) [nM]	EC50 (wild type PKR [1]; Table 4, AC50, enzyme assay) [nM]	EC50 (PKR K410E) [nM]	EC50 (PKR R510Q; Table 4, AC50, enzyme assay) [nM]	EC50 (wild type PKR [2]) [nM]	further results
CC(=O)NCc1nc2c(s1)c1cnn(Cc3cccc4[nH]ncc34)c(=O)c1n2C [Compound 139]	< 300	< 300	< 300	≤ 1000	–	–	–	–	–
Cn1c2nc(C(O)(C(N)=O)c3ccccc3)sc2c2cnn(Cc3cccc4[nH]ncc34)c(=O)c21 (stereo not drawn) [Compound 152]	301 to 800	< 300	301 to 800	≤ 1000	–	–	–	–	–
